For assay [1], the target named is T1, HPK1 kinase (aa1-346, Life Technologies) (Homo sapiens, UniProt Q92918).
T1 construct: HPK1 kinase (aa1-346, Life Technologies); purchased Life Technologies
T1 sequence (Q92918 1-346): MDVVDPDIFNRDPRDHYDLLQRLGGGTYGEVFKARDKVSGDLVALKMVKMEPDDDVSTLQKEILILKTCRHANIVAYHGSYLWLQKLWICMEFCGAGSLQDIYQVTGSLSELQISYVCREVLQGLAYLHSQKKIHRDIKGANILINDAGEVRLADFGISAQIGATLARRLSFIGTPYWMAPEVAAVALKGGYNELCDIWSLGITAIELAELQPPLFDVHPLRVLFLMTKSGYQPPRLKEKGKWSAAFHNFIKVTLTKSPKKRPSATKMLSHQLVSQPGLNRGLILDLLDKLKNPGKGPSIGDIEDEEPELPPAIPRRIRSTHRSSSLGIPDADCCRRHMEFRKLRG
As to the kind of experiment: HPK1 Kinase Activity Assay at 1 mM ATP (TR-FRET). The format is biochemical. The note with it: HPK1 40 nM, read-out: Enzymatic activity IC50. The method in brief:
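HPK1 (aa1-346, 40 nM) pre-incubated 60 min at room temperature with compound (0-10 μM), then reacted 120 min with 1 mM ATP and 0.5 μM STK1 substrate in HEPES pH 7.0 with MgCl2. Phosphorylation read by TR-FRET (665/620 nm); IC50 from four-parameter logistic fit.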
In general terms: In TR-FRET formats the signal depends on donor and acceptor labels being close together.

For another assay, the system named is HEK293 cells. In words: HEK293 cell viability assay (CellTiter-Glo). It is filed as cell-based. The note with it: 3-day exposure, 0 to 10 μM. Here is the method: Cytotoxicity on HEK293 Cells Proliferation (HEK293 Cell Viability Assay)
HEK293 cell line were used in this study. Cell lines were maintained in DMEM (Dulbecco's Modified Eagle Medium) supplemented with 10% fetal bovine serum (Thermo Fisher), 50 units/mL penicillin and streptomycin (Thermo Fisher) and kept at 37° C. in a humidified atmosphere containing 5% CO2 in air. Cell lines were reinstated from frozen stocks that were laid down within 50 passages from the original cells purchased. The growth-inhibitory activity of compounds in HEK293 cells was determined using CellTiter-Glo luminescent cell viability assay (Promega). 3000 cells per well were seeded into a 96-well plate to ensure logarithmic growth for 3 days treatment period. Cells were treated with a 10-point dilution series. The final compound concentration was from 0 to 10 μM. Following a 3-day exposure to the test compounds, 30 μL of CellTiter-Glo reagent was added into 100 μL cell culture medium per well. Mixture was mixed on an orbital shaker for 2 minutes to allow cell lysis, followed by 10 minutes of incubation at room temperature to allow development and stabilization of luminescent signal, which corresponded to the quantity of ATP and thus the quantity of metabolically active cells. Luminescent signal was measured using PHERAstar FS reader (BMG Labtech). IC50 values for cell viability were determined with Dotmatics.
A general note: ATP-based viability assays read luminescence as a measure of living cells.

The structures appear in SMILES notation.

The term IC50 denotes the concentration that inhibits the measured activity by half. Take `COc1cc(-c2cnc3[nH]cc(-c4ccc(C(=O)N5CC6(COC6)C5)cc4)c3n2)cc2c1CN(C)CC2` [Example 15, (4-(2-(8-methoxy-2-methyl-1,2,3,4-tetrahydroisoquinolin-6-yl)-5H-pyrrolo[2,3-b]pyrazin-7-yl)phenyl) (2-oxa-6-azaspiro[3.3]heptan-6-yl)methanone]: the concentration for half-maximal inhibition (IC50) in assay [1] turned out to be 17 nM; in the assay on HEK293 cells (Homo sapiens, HEK293, 72 h), 1040 nM.
Taken in the same sequence, the figures for `Cc1cc(-c2c[nH]c3ncc(-c4cc(C)c5c(c4)CN(C)CC5)nc23)ccc1C(=O)N1CC2(COC2)C1` [Example 16, (4-(2-(2,5-dimethyl-1,2,3,4-tetrahydroisoquinolin-7-yl)-5H-pyrrolo[2,3-b]pyrazin-7-yl)-2-methylphenyl) (2-oxa-6-azaspiro[3.3]heptan-6-yl)methanone] were 88 nM and greater than 10000 nM.
For `Cc1cc(-c2cnc3[nH]cc(-c4ccc(C(=O)N(C)CC(C)(C)O)cc4)c3n2)cc2c1CCN(C)C2` [Example 20, 4-(2-(2,5-dimethyl-1,2,3,4-tetrahydroisoquinolin-7-yl)-5H-pyrrolo[2,3-b]pyrazin-7-yl)-N-(2-hydroxy-2-methylpropyl)-N-methylbenzamide] the same measures were 65 nM and 3870 nM.
In the case of `Cc1cc(-c2cnc3[nH]cc(-c4ccc(C(=O)N(C)CC(C)(C)O)cc4)c3n2)cc2c1CCN(C)C2` [Example 38, 4-(2-(2,5-dimethyl-1,2,3,4-tetrahydroisoquinolin-7-yl)-5H-pyrrolo[2,3-b]pyrazin-7-yl)-N-(2-hydroxy-2-methylpropyl)-N-methylbenzamide], the IC50 in assay [1] is 65 nM; in the assay with HEK293 cells, 2190 nM.
In the case of `CN1CCc2c(cc(-c3cnc4[nH]cc(-c5ccc(C(=O)N(C)C)cc5)c4n3)cc2C(F)F)C1` [Example 95, 4-(2-(5-(difluoromethyl)-2-methyl-1,2,3,4-tetrahydroisoquinolin-7-yl)-5H-pyrrolo[2,3-b]pyrazin-7-yl)-N, N-dimethylbenzamide], the IC50 in assay [1] was determined as 71 nM; in the assay on HEK293 cells (Homo sapiens, HEK293, 72 h), 5180 nM.
For `Cc1cc(-c2c[nH]c3ncc(-c4cc(C)c5c(c4)CCN(C)C5)nc23)ccc1C(=O)N(C)C` [Example 126, 4-(2-(2,8-dimethyl-1,2,3,4-tetrahydroisoquinolin-6-yl)-5H-pyrrolo[2,3-b]pyrazin-7-yl)-N, N, 2-trimethylbenzamide] the same measures were 43 nM and greater than 10000 nM.
For `CCN1CCc2c(C)cc(-c3cnc4[nH]cc(-c5ccc(C(=O)N(C)C)c(C)c5)c4n3)cc2C1` [Example 127, 4-(2-(2-ethyl-5-methyl-1,2,3,4-tetrahydroisoquinolin-7-yl)-5H-pyrrolo[2,3-b]pyrazin-7-yl)-N, N, 2-trimethylbenzamide] the same measures were 86 nM and 3130 nM.

For the origin of these results see US12454534B2, “Pyrrolo[2,3-b]pyrazines as HPK1 inhibitor and the use thereof” (BEIGENE, LTD., priority 2019, dated 2025).
